According to US8815919B2, “Oxadiazole derivatives” (Merck Serono SA, priority 2009, dated 2014):
Where a name gives a salt, the structure may show the parent alone. Read-outs that look alike come from different tables or passages of the source.

Legend:
S1P1 [1] = target: T1, S1P1 (Homo sapiens, UniProt P21453); experiment: 35S-GTPγS binding on membranes of CHO cells expressing S1P1; assay type: biochemical; conditions: read-out: S1P1/GTPG EC50
Experimental: (§1) Membranes were prepared from CHO cells expressing S1P1 or S1P3 for use in ligand and […] binding studies. Cells were suspended in 50 mM TRIS, pH 7.4, 2 mM EDTA, 250 mM Sucrose (buffer A) and 1× Complete protease inhibitor cocktail (Roche), and disrupted at 4° C. by N2 decompression using a cell disruption bomb (Parr Instrument). Following centrifugation at 1000 RPM for 10 min at 4° C., the supernatant was diluted (2×) in buffer A and centrifuged again at 19000 RPM for 75 min at 4° C. The pellet was then suspended in 10 mM HEPES, pH 7.4, 1 mM EDTA, 250 mM Sucrose (Buffer B), and 1× Complete EDTA-free protease inhibitor cocktail and homogenized using a potter. Membranes were flash frozen in liquid N2 and stored at −80° C.
(§2) Membranes (1 to 10 μg protein) prepared as described above, were incubated in 96-well Scintiplates (PerkinElmer) with test compounds diluted in DMSO, in 140 μl of 20 mM HEPES, pH 7.4, 10 mM MgCl2, 2 μg/well Saponin, 0.2% fatty acid free BSA (Assay buffer), 125 mM NaCl and 1.5 μM GDP. The assay was initiated with the addition of 60 μl of 1.5 nM [35S]-GTPγS (1100 Ci/mmol; GE Healthcare) in assay buffer. After 60 min incubation at 30° C. on a shaker, plates were centrifuged for 10 min at 2000 RPM. Supernatant was discarded and membrane bound radioactivity was measured on a PerkinElmer 1450 MicroBeta counter. Triplicate samples were averaged and expressed as % response relative to S1P activation in absence of compound (n=2).
(§3) The “potency” or the “activity” of the compounds is determined by the EC50 values as evaluated in the above described 35S-GTPγS binding assay.
Target sequence in this assay (P21453 whole entry, species assumed): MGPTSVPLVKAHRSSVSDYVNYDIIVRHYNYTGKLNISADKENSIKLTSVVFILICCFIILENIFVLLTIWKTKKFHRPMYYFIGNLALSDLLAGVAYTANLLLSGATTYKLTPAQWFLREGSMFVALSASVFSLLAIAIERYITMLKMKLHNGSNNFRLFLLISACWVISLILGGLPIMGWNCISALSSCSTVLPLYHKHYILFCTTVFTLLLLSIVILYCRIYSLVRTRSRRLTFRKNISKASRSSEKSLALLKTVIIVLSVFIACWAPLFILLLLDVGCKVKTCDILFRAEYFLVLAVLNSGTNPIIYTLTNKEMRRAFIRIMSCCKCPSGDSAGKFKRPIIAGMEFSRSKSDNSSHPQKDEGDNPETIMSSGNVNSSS

S1P1 [2] = target: T1, S1P1; experiment: Receptor binding assay, [33P]sphingosine 1-phosphate competition, S1P1 membranes, WGA SPA beads
Summary of the method: (§4)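 Competition of [33P]S1P ([…]) on CHO cell membranes with WGA SPA beads in 50 mM HEPES pH 7.5, 5 mM MgCl2, 100 mM NaCl, 0.4% fatty acid-free BSA; 60 min at RT. Triplicates normalised to total binding and nonspecific binding (1000-fold excess unlabeled S1P).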
Target sequence in this assay (P21453 whole entry, species assumed): as above

S1P3 [3] = target: T2, S1P3 (Homo sapiens, UniProt Q99500); experiment: 35S-GTPγS binding on membranes of CHO cells expressing S1P3; assay type: biochemical; conditions: read-out: S1P3/GTPG EC50
T2 sequence (Q99500 whole entry, species assumed): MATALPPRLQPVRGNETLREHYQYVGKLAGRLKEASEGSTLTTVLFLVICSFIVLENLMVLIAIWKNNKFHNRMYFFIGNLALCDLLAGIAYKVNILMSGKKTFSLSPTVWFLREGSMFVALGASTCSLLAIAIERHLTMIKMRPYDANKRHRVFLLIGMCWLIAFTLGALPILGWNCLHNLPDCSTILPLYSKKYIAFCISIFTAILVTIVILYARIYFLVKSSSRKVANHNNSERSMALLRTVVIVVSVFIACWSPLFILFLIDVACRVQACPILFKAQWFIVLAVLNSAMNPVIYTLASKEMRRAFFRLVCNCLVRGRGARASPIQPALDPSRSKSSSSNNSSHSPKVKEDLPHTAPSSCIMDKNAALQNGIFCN
Experimental: as §1, §2, §3

S1P1 [4] = target: T1, S1P1; experiment: S1P1 internalization assay in S1P1-U2OS cells (S1P1-EGFP), cell imaging; assay type: cell-based; parameters: host or cells: U2OS (human bone osteosarcoma epithelial cells), CMV promoter, geneticin selection; conditions: 1 hour incubation
Summary of the method: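 U2OS cells stably expressing human S1P1-EGFP, plated overnight in 1% FCS medium, then serum-starved 2 h in 0.1% fatty-acid-free BSA before 1 h compound exposure at 37 °C. After PFA fixation and Hoechst staining, internalization imaged as EGFP spot count per nucleus.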
Target sequence in this assay (P21453 whole entry): as the sequence (P21453 whole entry, species assumed) above

S1P3 [5] = target: T2, S1P3; experiment: Receptor binding assay, [33P]sphingosine 1-phosphate competition, S1P3 membranes, WGA SPA beads
Summary of the method: as §4

[6] = 96 well-plate, read-out: S1P1 binding Ki (M) (96 well-plate)
[7] = 384 well-plate, read-out: S1P1 binding Ki (M) (384 well-plate)
[8] = 96 well-plate, read-out: S1P3 binding Ki (M) (96 well-plate)
[9] = 384 well-plate, read-out: S1P3 binding Ki (M) (384 well-plate)

Compound | EC50 (S1P1 [1]) [nM] | Ki (S1P1 [2]; [6]) [M] | EC50 (S1P3 [3]) [nM] | EC50 (S1P1 [4]) [nM] | Ki (S1P1 [2]; [7]) [M] | Ki (S1P3 [5]; [8]) [M] | Ki (S1P3 [5]; [9]) [M]
CCC1CCCCN1c1ccc(-c2nc(-c3cccc(CN(C)CC(=O)O)c3)no2)cc1COC (centres unmarked) [Example 17, N-(3-{5-[4-(2-ethylpiperidin-1-yl)-3-(methoxymethyl)phenyl]-1,2,4-oxadiazol-3-yl}benzyl)-N-methylglycine, hydrochloride salt] | 1.41 | 4.46e-10 | 255 |  |  |  | 
COCc1cc(-c2nc(-c3cccc(COCCC(=O)O)c3)no2)ccc1N1CCCCC1C (centres unmarked) [Example 9, 3-[4(3-{5-[3-(methoxymethyl)-4-(2-methylpiperidin-1-yl)phenyl]-1,2,4-oxadiazol-3-yl}benzyl)oxy]propanoic acid, hydrochloride salt] | 3.85 | 8.04e-10 |  |  |  |  | 
COCc1cc(-c2nc(-c3cccc(CC(=O)NCC(=O)O)c3)no2)ccc1-c1ccccc1C [Example 26, N-[(3-{5-[2-(methoxymethyl)-2′-methylbiphenyl-4-yl]-1,2,4-oxadiazol-3-yl}phenyl)acetyl]glycine] | 10.7 |  |  |  |  |  | 
COCc1cc(-c2nc(-c3ccc(C(=O)NCCC(=O)O)c(F)c3)no2)ccc1N1CCCCC1C (stereo not drawn) [Example 3, N-(2-fluoro-4-{5-[3-(methoxymethyl)-4-(2-methylpiperidin-1-yl)phenyl]-1,2,4-oxadiazol-3-yl}benzoyl)-beta-alanine] | 8.43 | 8.32e-10 |  | 7.76 |  |  | 
CCc1ccccc1-c1ccc(-c2nc(-c3cccc(CNCCC(=O)O)c3)no2)cc1COC [Example 18, N-(3-{5-[2′-ethyl-2-(methoxymethyl)biphenyl-4-yl]-1,2,4-oxadiazol-3-yl}benzyl)-beta-alanine, hydrochloride salt] | 0.47 | 1.68e-10 | 4.96 |  |  |  | 
COCc1cc(-c2nc(-c3cccc(CC(=O)NCCNC(C)=O)c3)no2)ccc1-c1ccccc1C [Example 25, N-[2-(acetylamino)ethyl]-2-(3-{5-[2-(methoxymethyl)-2′-methylbiphenyl-4-yl]-1,2,4-oxadiazol-3-yl}phenyl)acetamide] | 7.08 | 8.51e-10 | 635 |  |  |  | 
COCc1cc(-c2nc(-c3cccc(CN(C)CCC(=O)O)c3)no2)ccc1N1CCCCC1C (stereo not drawn) [Example 2, N-(3-{5-[3-(methoxymethyl)-4-(2-methylpiperidin-1-yl)phenyl]-1,2,4-oxadiazol-3-yl}benzyl)-N-methyl-beta-alanine, hydrochloride salt] | 0.287 | 1.36e-10 | 44.8 |  |  |  | 
COCc1cc(-c2nc(-c3cc(F)c(F)c(OCCCC(=O)O)c3)no2)ccc1-c1ccccc1C [Example 5, 4-(2,3-difluoro-5-{5-[2-(methoxymethyl)-2′-methylbiphenyl-4-yl]-1,2,4-oxadiazol-3-yl}phenoxy)butanoic acid] | 22.7 | 4.09e-09 |  | 157 | 1.45e-08 |  | 
CCc1ccccc1-c1ccc(-c2nc(-c3ccc(C(=O)NCCC(=O)O)c(F)c3)no2)cc1COC [Example 16, N-(4-{5-[2′-ethyl-2-(methoxymethyl)biphenyl-4-yl]-1,2,4-oxadiazol-3-yl}-2-fluorobenzoyl)-beta-alanine] | 6.07 | 2.22e-09 | 531 |  |  |  | 
COCc1cc(-c2nc(-c3ccc(C(=O)NCC(O)CO)c(F)c3)no2)ccc1-c1ccccc1C (centres unmarked) [Example 27, N-(2,3-dihydroxypropyl)-2-fluoro-4-{5-[2-(methoxymethyl)-2′-methylbiphenyl-4-yl]-1,2,4-oxadiazol-3-yl}benzamide] | 17.8 |  |  |  |  |  | 
COCc1cc(-c2nc(-c3cccc(CC(=O)NCC(=O)OC)c3)no2)ccc1-c1ccccc1C [Example 24, methyl N-[(3-{5-[2-(methoxymethyl)-2′-methylbiphenyl-4-yl]-1,2,4-oxadiazol-3-yl}phenyl)acetyl]glycinate] | 2.11 | 9.12e-10 |  |  |  |  | 
Cc1ccccc1-c1ccc(-c2nc(-c3cccc(S(C)(=O)=O)c3)no2)cc1CN(C)C [Example 8, N,N-dimethyl-1-(2′-methyl-4-{3-[3-(methylsulfonyl)phenyl]-1,2,4-oxadiazol-5-yl}biphenyl-2-yl)methanamine] | 11.7 |  |  |  |  |  | 
COCc1cc(-c2nc(-c3cccc(CN(C)CC(=O)O)c3)no2)ccc1-c1ccccc1 [Example 33] |  | 1.83e-10 |  | 6.96 |  | 6.24e-08 | 
COCc1cc(-c2nc(-c3ccc(CN(C)CC(=O)O)cc3C)no2)ccc1-c1ccccc1C [Example 102, 2-((4-(5-(2-(methoxymethyl)-2′-methylbiphenyl-4-yl)-1,2,4-oxadiazol-3-yl)-3-methylbenzyl)(methyl)amino)acetic acid] |  |  |  | 13.7 | 1.44e-09 | 2.9e-07 | 6.99e-07
CCN(CC(=O)O)Cc1cccc(-c2noc(-c3ccc(-c4ccccc4C)c(COC)c3)n2)c1 [Example 78, N-ethyl-N-(3-{5-[2-(methoxymethyl)-2′-methylbiphenyl-4-yl]-1,2,4-oxadiazol-3-yl}benzyl)glycine, hydrochloride salt] |  | 4.41e-10 |  | 34.3 | 2.47e-09 | 1.5e-07 | 3.54e-07
COCc1cc(-c2nc(-c3cccc(CN(C)CC(=O)O)c3)no2)ccc1N1CCCCC1 [Example 29] |  | 1.47e-10 |  | 7.33 |  |  | 2.38e-07
COCc1cc(-c2nc(-c3ccc(CN(C)CC(=O)O)c(F)c3)no2)ccc1-c1ccccc1F [Example 55, N-(2-fluoro-4-{5-[2′-fluoro-2-(methoxymethyl)biphenyl-4-yl]-1,2,4-oxadiazol-3-yl}benzyl)-N-methylglycine, hydrochloride salt] |  | 1.59e-10 |  | 8.46 | 5.23e-10 | 7.12e-08 | 9.2e-08
COCc1cc(-c2nc(-c3ccc(CN(C)CC(=O)O)c(Br)c3)no2)ccc1-c1ccccc1C [Example 53, N-(2-bromo-4-{5-[2-(methoxymethyl)-2′-methylbiphenyl-4-yl]-1,2,4-oxadiazol-3-yl}benzyl)-N-methylglycine, hydrochloride salt] |  | 2.14e-10 |  | 7.61 |  | 7e-07 | 
COCc1cc(-c2nc(-c3ccc(CN(C)CC(=O)O)c(F)c3)no2)ccc1-c1ccccc1C [Example 52, N-(2-fluoro-4-{5-[2-(methoxymethyl)-2′-methylbiphenyl-4-yl]-1,2,4-oxadiazol-3-yl}benzyl)-N-methylglycine, hydrochloride salt] |  | 1.96e-10 |  | 2.52 |  | 1.27e-07 | 
COCc1cc(-c2nc(-c3ccc(CNCC(=O)O)cc3)no2)ccc1-c1ccccc1C [Example 60, N-(4-{5-[2-(methoxymethyl)-2′-methylbiphenyl-4-yl]-1,2,4-oxadiazol-3-yl}benzyl)glycine, hydrochloride salt] |  | 3.09e-10 |  | 1.78 |  | 1.93e-07 | 
COCc1cc(-c2nc(-c3ccc(CN(C)CC(=O)O)cc3)no2)ccc1-c1cccc(F)c1Cl [Example 122, N-(4-{5-[2′-chloro-3′-fluoro-2-(methoxymethyl)biphenyl-4-yl]-1,2,4-oxadiazol-3-yl}benzyl)-N-methylglycine, hydrochloride salt] |  |  |  | 5.1 | 1.31e-09 |  | 2.5e-06
COCc1cc(-c2nc(-c3ccc(CCN(C)CC(=O)O)cc3)no2)ccc1-c1ccccc1C [Example 87, [(2-{4-[5-(2-Methoxymethyl-2′-methyl-biphenyl-4-yl)-[1,2,4]oxadiazol-3-yl]-phenyl}-ethyl)-methyl-amino]-acetic acid] |  | 4.23e-10 |  | 13.6 | 9.45e-10 | 4.2e-07 | 3.85e-07
COCc1cc(-c2nc(-c3cccc(NCC(O)CO)c3)no2)ccc1-c1ccccc1C (centres unmarked) [Example 22, 3-[(3-{5-[2-(methoxymethyl)-2′-methylbiphenyl-4-yl]-1,2,4-oxadiazol-3-yl}phenyl)amino]propane-1,2-diol] |  | 7.11e-10 | 293 |  |  |  | 
